Results from patent US9534010B2, “Stable indole-3-propionate salts of S-adenosyl-L-methionine” (HEBERT SAM-E LLC, priority 2013, dated 2017).

Assays:
[1] = system: alcoholic liver cirrhosis; conditions: oral SAMe, compared with a placebo treated group; cited from earlier work
[2] = system: Caco-2 cells; assay: In vitro Caco-2 permeability assay (apical to basolateral); conditions: for mean A->B Papp: analyte SAMe, test compound 2 mM, A side pH 6.5, B side pH 7.4, 2 hours
Procedure: The following in vitro permeability assay was conducted to determine the efficacy of certain absorption enhancers in increasing the permeability of a IPA salt of SAMe, or a pharmaceutically acceptable salt thereof, of the invention. See Stewart, B H, et al. (1995) “Comparison of intestinal permeabilities determined in multiple in vitro and in situ models: Relationship to absorption in humans,” Pharm. Res. 12:693.
The test compound was the IPA salt of SAMe 1,4-butanedisulfonate (the product of Synthetic Example 2) (SAMeIPA). The concentration of the test compound used in the assay was 2 mM.
The signal was optimized for each test formulation by ESI positive or negative ionization mode. An MS2 scan or a SIM scan was used to optimize the fragmenter voltage and a product ion analysis was used to identify the best fragment for analysis, and the collision energy was optimized using a product ion or MRM scan. An ionization ranking was assigned indicating the formulation's ease of ionization.
Samples were analyzed by LC/MS/MS using an Agilent 6410 mass spectrometer coupled with an Agilent 1200 HPLC and a CTC PAL chilled autosampler, all controlled by MassHunter software (Agilent). After separation on a C18 reverse phase HPLC column (Agilent, Waters, or equivalent) using an acetonitrile-water gradient system, peaks were analyzed by mass spectrometry (MS) using ESI ionization in MRM mode.
The permeability of SAMe and IPA were measured independently. […]
For Apical to Basolateral (A->B) permeability, the test formulation was added to the apical (A) side and amount of permeation is determined on the basolateral (B) side; for Basolateral to Apical (B>A) permeability, the test formulation was added to the B side and the amount of permeation was determined on the A side. […]
To verify the Caco-2 cell monolayers were properly formed, aliquots of the cell buffers were analyzed by fluorescence to determine the transport of the impermeable dye Lucifer Yellow.
Data was expressed as apparent permeability (Papp). […]

[3] = Storage stability at room temperature, checked by UV absorption spectra and HPLC; type: physicochemical; conditions: for maximum absorption peak at 420 nm (toxic degradation products of incorporated IPA): UV absorption spectra, initial and after eight months at room temperature; for SAMe degradation products by HPLC or UV absorption spectra: stored for eight months at room temperature
Description: Stability of the IPA salt can be assessed by the method disclosed in Bottiglieri, T. (1990), Biomed Chromatogr, 4(6):239-41.
Ultraviolet-visible light absorption spectra were obtained for the product of Synthetic Example 1 and the product of Synthetic Example 2 (see FIG. 1 and FIG. 2, respectively). An ultraviolet-visible light absorption spectrum was also obtained at the same time for a blank sample (see FIG. 5) for control purposes.
The product of Synthetic Example 1 and the product of Synthetic Example 2 were then stored for eight months at room temperature, after which ultraviolet-visible light absorption spectra were obtained for the stored products (see […] and FIG. 4). An ultraviolet-visible light absorption spectrum was also obtained at the same time for a blank sample (see FIG. 6) for control purposes.
This is in stark contrast to the unstable nature of, for example, previously known salts of SAMe, such as the tosylate or 1,4-butanedisulfonate salts, the stability of which can be determined in the same manner as described herein.

Compound	overall mortality and/or progression to liver transplant [1]	mean A->B Papp [2]	mean A->B Papp ([2]; listed as S-adenosyl-L-methionine 1,4-butanedisulfonate indole-3-propionate salt)	fold increase in S-adenosyl-L-methionine permeability ([2]; using trimethyl chitosan homopolymer as the absorption enhancer)	maximum absorption peak at 420 nm (toxic degradation products of incorporated IPA) [3]	SAMe degradation products by HPLC or UV absorption spectra [3]
C[S+](CC[C@H](N)C(=O)O)C[C@H]1O[C@@H](n2cnc3c(N)ncnc32)[C@H](O)[C@@H]1O (stereo partly drawn) [SAMe, S-adenosyl-L-methionine]	12%					
S-Adenosyl-L-methionine 1,4-butanedisulfonate indole-3-propionate [SAMeIPA]		0.20	low	37.5 fold	no maximum absorption peaks at 420 nm were noted	No SAMe degradation products were detected
S-Adenosyl-L-methionine p-toluenesulfonate indole-3-propionate [Synthetic Example 1]					no maximum absorption peaks at 420 nm were noted	No SAMe degradation products were detected
